Results on 3 molecules are retold here after patent US20220306623A1, “PYRIDYL OR PYRIMIDYL MTOR KINASE INHIBITORS” (GLAXOSMITHKLINE INTELLECTUAL PROPERTY DEVELOPMENT LIMITED, priority 2019, published 2022).

Test [1] relates to phosphorylated Akt at serine 473 (pAKTs473) in primary human lung fibroblasts. Briefly: High throughput phosphorylated Akt (Ser473) in vitro immunoassay (MSD). Conditions: Fibroblast, primary human lung fibroblasts (Lonza), 384-well, compound 1 h, PDGF-BB 10 ng/ml 10 min, read-out: mean pIC50, pAKTser473 high throughput immunoassay (converted). It is filed as cell-based. The text has this: Immunoassay to measure effect of test compounds on phosphorylated Akt at serine 473 (pAKTs473) in primary human lung fibroblasts (Lonza Group Ltd, Basel, Switzerland, Catalogue No. CC-2512) using the MesoScale Discovery (MSD) platform to quantify levels of total Akt and pAKTser473.
Human lung fibroblasts were routinely maintained in fibroblast basal medium supplemented with 2% foetal bovine serum (FBS), 0.1% human fibroblast growth factor (FGF)-B, 0.1% insulin, 0.1% GA-100 (Lonza Group Ltd, Basel, Switzerland, Catalogue No. CC-3132) at 37° C. in 5% CO2 according to the manufacturer's protocol.
For the assay, cells were harvested using Trypsin/EDTA, (Lonza Group Ltd, Basel, Switzerland, Catalogue No. CC-5012), at working concentration of 0.025%, resuspended to give 3×10^5 cells/ml and 50 ul/well seeded into 384-well plates (Greiner Group, Kremsmunster, Austria, Catalogue No. 781091) in media containing 0.4% FBS and incubated o/n at 37° C. in 5% CO2.
Test compounds were dissolved in 100% DMSO to give 10 mM stock solutions and serially diluted to generate an 11-point concentration response curve. Compound were further diluted by […] into 384-well V-bottom polypropylene plates (Greiner Group, Kremsmunster, Austria, Catalogue No. 781280) with media containing 0.4% FBS to give 50 µM top compound concentration in 0.5% DMSO.
Compounds were transferred to 384-well plates contacting cells (0.1% DMSO final) and incubated for 1 h at 37° C. in 5% CO2, prior to stimulation with platelet-derived growth factor (PDGF)-BB (R&D Systems, Catalogue No. 220-BB) at 10 ng/ml (final) for 10 min at RT. Cell assay plates were incubated on ice and treated with lysis buffer (Cell Signalling Technology, Catalogue No. 9806) containing protease and phosphatase inhibitors (Thermo Scientific, Catalogue No. 78444) followed by shaking for 30 min at 4° C.
MSD plates (MSD, MA6000 384-well GAR plate, Catalogue No. L21RA-2) were blocked with blocking buffer containing TBS (MSD, Cat. No. R61TX-1) with 0.5% bovine serum albumin (BSA) (Sigma Aldrich, Cat. No. A7906), 0.1% tween-20 (Sigma Aldrich, Catalogue No. P2287) and coated with rabbit-anti-human pAkt (s473) ab (Cell Signalling Technology, Catalogue No. CST #4060) at RT with shaking, followed by washing (×3) with 1×TBS wash reagent containing 0.1% Tween-20. Cell lysates (30 ul) were added and MSD plates centrifuged at 1000 rpm at 4° C. o/n.
Plates were washed with 1×TBS wash buffer (×3), prior to addition of mouse-anti-human-total Akt ab (1 mg/ml) (Upstate (Milipore), Catalogue No. 05-591) in blocking buffer and shaken at RT for 1 h. After washing with 1×TBS wash buffer (×3), plates were incubated with goat-anti-mouse SULFO-TAG detection ab (MSD, Catalogue No. R32AC-1) (1:500 in blocking buffer) for 1 h at RT. Plates were washed with 1×TBS (×3) and read buffer (2×) (MSD, Catalogue No. R92TC-1) added before detecting electrochemiluminescence (MSD Sector Imager 6000).
Data analysis was performed by determining % inhibition values for test compounds relative to the minimum (+PDGF-BB stimulation) and maximum responses (no PDGF-BB stimulation) with non-linear regression analysis to determine IC50 values for test compounds.

In test [2] the test system is type I collagen deposition in primary lung fibroblasts derived from human tissue. Briefly: High throughput type I collagen deposition (scar-in-a-jar) high content screening assay. The test is classed as cell-based. Conditions: Primary lung fibroblast, 72 h, human pulmonary fibroblasts, 384-well, TGF-β 1 ng/ml 72 h, total collagen area, read-out: mean pIC50, high throughput type I collagen deposition (scar-in-a-jar) (converted). Here is the method:
Highthroughput, cellular type I collagen deposition was measured by adapting a published method; scar-in-a-jar (Chen et al., 2009) to primary lung fibroblasts derived from human tissue and combining with high content analysis to permit fluorescent quantification of collagen deposited in the extracellular matrix (ECM). The human biological samples were sourced ethically and their research use was in accordance with the terms of the informed consents.
Test compounds were dissolved in 100% DMSO to give 10 mM (stocks) and further diluted to give half log dilutions to generate an 11 point concentration response curve. 1 ul was transferred to 384-well plates (Greiner Group, Kremsmunster, Austria, Catalogue No Greine 781280r).
Human pulmonary fibroblasts were maintained in DMEM media (Gibco, Catalogue No 21969) supplemented with 4 mM L-glutamine (Gibco Catalogue No 25030-024) and 10% heat inactivated FBS (Gibco, Catalogue No 10099-141) at 37° C. in 10% CO2. Cells were harvested and resuspended at 4×10^6 cells/ml in a T175 cell culture flask (BD Falcom, Catalogue No: 353112) containing 50 mL of culture media. After 4 days 37° C. in 10% CO2, cells were harvested and seeded at 4000 cells per well ([…]) into 384-well plates (BD Falcon, Catalogue No 353962Greiner) in assay media (0.4% heat inactivated FBS, 4 mM L-glutamine). Plates were sealed with breathable seals (Sigma, Catalogue No. BEM-1). Assay plates were incubated for 72 h at 37° C. in 10% CO2.
Assay media was supplemented with 112.5 mg/ml Ficoll 70 (Sigma, Catalogue No F2878), 75 mg/ml Ficoll 400 (Sigma, Catalogue No F4375) and 50 µg/ml ascorbic acid (Sigma, Catalogue No A8960). 30 μL assay media were added to 1 l compound ([…] compound concentration in 1% DMSO). Diluted compounds (10 μL) were transferred to plates containing cells and incubated for 3 h at 37° C. in 10% CO2. Transforming growth factor (TGF)-β (R&D systems, Catalogue No 100-B/CF) was reconstituted to give 10 µg/mL (stock) and further diluted in assay media containing Ficoll and ascorbic acid (1 in 3333). TGF-β was added to cell plates (1 ng/ml final) and cells incubated for 72 h at 37° C. in 10% CO2.
Media was aspirated from cells and 30 µL/well 100% ice-cold methanol added and incubated at RT for 5 min to fix cells. Methanol was aspirated and cells washed with PBS (3×). To block and permeabilise, cells were incubated with PBS containing 1% BSA and 0.1% Triton X 100 for 20 min, followed by PBS wash (3×). Cells were incubated with mouse anti human type I collagen monoclonal antibody (Sigma, Catalogue No C2456) diluted 1:1000 in PBS for 24 h at 4° C. Cells were washed with PBS containing 0.1% Tween-20 (3×) and incubated with secondary alexa fluor 488 goat-anti-mouse antibody (Invitrogen, Catalogue No A11001, 1 in 500 in PBS) and Hoechst 33342 (Sigma, Catalogue No H21492), 1 in 1000 in PBS) for 1 h at RT, prior to washing with PBS containing 0.1% Tween (×4).
Type I collagen immunoreactivity was detected using the INCell 2000 Analyzer (GE Healthcare, INcell 2000) set to excitation and emission wavelengths for DAPI and FITC with laser focus and exposure adjusted to appropriate levels. Images were imported and analysed using Columbus software (Perkin Elmer) and computational algorithms to quantify “total collagen area” and “cell count”.
Data analysis was performed by determining 0/inhibition values for test compounds relative to the minimum (media only) and maximum responses (TGF-βstimulation) with non-linear regression analysis to determine IC50 values for test compounds.

In test [3] the target is T1, mTOR (Homo sapiens, UniProt P42345).
T1 construct: capturing of endogenously expressed target proteins from cell extracts by a bead-immobilized capturing ligand; endogenous in cells; host or cells: HuT-78 cells (ECACC 88041901), cell lysate
The test can be described thus: mTOR kinobeads competition-binding assay. The settings on record: HuT-78 cell lysate, bead-immobilized capturing ligand, 2 h at 4° C., mean of multiple experiments; read-out: mean pIC50, mTOR kinobeads assay (converted). The protocol: The affinity of test compounds for mTOR was determined in the mTOR kinobeads assay. This is a competition-binding assay based on the capturing of endogenously expressed target proteins from cell extracts by a bead-immobilized capturing ligand in the presence of the test compound.
HuT-78 cells (European Collection of Authenticated Cell Cultures, 88041901) were cultured according to vendor's instructions. Frozen cell pellets were homogenized in 3× pellet volumes lysis buffer (50 mM Tris-HCl, 0.4% (v/v) Igepal-CA630, 5% glycerol, 150 mM NaCl, 1.5 mM MgCl2, 25 mM NaF, 1 mM sodium vanadate, 1 mM DTT, pH 7.5, supplemented with EDTA-free protease inhibitor tablet (Roche)). The sample was dispersed using a Dounce homogenizer, kept rotating for 30 min at 4° C., and centrifuged for 10 min at 20000 gat 4° C. The supernatant was centrifuged again for 1 h at 145 000 g. The protein concentration was determined by Bradford assay (BioRad), aliquots were snap frozen in liquid nitrogen and stored at −80° C.
The capturing matrices were generated by derivatizing N-hydroxysuccinimide (NHS) activated Sepharose 4 beads (GE Healthcare) with the functionalized ligands Compound A and Compound C at a ligand density of 5 mM. Remaining NHS-groups were blocked with ethanolamine.
For the mTOR kinobeads assay the matrices were combined in a 1:1 ratio and equilibrated in DP buffer (50 mM Tris-HCl (pH 7.5), 0.4% (v/v) Igepal-CA630, 5% (v/v) glycerol, 150 mM NaCl, 1.5 mM MgCl2, 25 mM NaF, 1 mM Na3VO4, 1 mM dithiothreitol). All steps of the mTOR kinobeads assay were performed at 4° C. or on ice. The cell lysate was diluted with DP buffer to a final concentration of 5 mg/ml and a final detergent concentration of 0.4% (v/v) Igepal-CA630. For the assay 250 μg cell lysate and 2.5 μl capturing matrix per well (final assay volume: 75 μl) were incubated in the presence of test compounds in a 384-well filter plate (MultiScreenHTS HV Filter Plate, 0.45 μm, MZHVNOW50, Merck Millipore). Each plate contained 16 positive (100 μM Compound B) and 16 negative (2% v/v DMSO) control wells. Compounds were tested in a concentration-response applying 1:3 or 1:4 dilution steps for in total 11 data points. DMSO concentration was 2% (v/v). After 2 h incubation on an overhead shaker (Roto-Shake Genie, Scientific Industries Inc.) at 4° C. the non-bound fraction was removed by washing the beads with DP buffer. Proteins retained on the beads were eluted in SDS sample buffer (200 mM Tris (pH 7.4), 250 mM Trizma Base, 4% (w/v) SDS, 20% (v/v) glycerol, 0.01% (w/v) bromophenol blue, 50 mM dithiothreitol) into a collection plate (384 well polypropylene microplate, V-shape, Greiner, 781 280). Eluates were spotted on nitrocellulose membranes (400 nl per spot) using an automated pin-tool liquid transfer (Biomek FX, Beckman). After drying, the membranes were rehydrated in 20% (v/v) ethanol and blocked by incubation with Odyssey blocking buffer (LICOR, 927-40000) for 1 h at room temperature. Blocked membranes were incubated overnight at 25° C. with Odyssey blocking buffer supplemented with a specific anti-mTOR antibody (Cell Signaling, 2972; 1:500) and 0.4% TWEEN-20. Then the membranes were washed in PBST buffer and incubated for 60 minutes at room temperature with the detection antibody (IRDye™ labelled antibody from LI-COR) diluted in Odyssey blocking buffer (LICOR 927-40000) containing 0.2% TWEEN-20. Then the membranes were washed with PBST and finally rinsed twice with PBS buffer to remove residual Tween-20. The membranes were then scanned with the Odyssey® Infrared Imaging System (LI-COR Biosciences). Fluorescence signals were recorded and analyzed according to the instructions of the manufacturer. Concentration response curves were computed with the software Activity Base. All data were normalized to the mean of 16 high (negative control) and 16 low (positive control) control wells on each plate. […]

For `CC[C@H]1COCCN1c1cc(C2(S(C)(=O)=O)CCOCC2)cc(-c2ccc3[nH]c(C)cc3n2)n1` [Example 21, (S)-3-ethyl-4-(6-(2-methyl-1H-pyrrolo[3,2-b]pyridin-5-yl)-4-(4-(methylsulfonyl)tetra-hydro-2H-pyran-4-yl)pyridin-2-yl)morpholine], the figures for the IC50 in test [1] and in test [2] were 2.51 to 25.1 nM and 20 to 3160 nM, respectively.

Turning to `CC[C@H]1COCCN1c1cc(CS(C)(=O)=O)cc(-c2ccc3[nH]c(C)cc3n2)n1` [Example 22, (S)-3-ethyl-4-(6-(2-methyl-1H-pyrrolo[3,2-b]pyridin-5-yl)-4-((methylsulfonyl)methyl)pyridin-2-yl)morpholine], the IC50 in test [1] is 2.51 to 25.1 nM; in test [2] it was 20 to 3160 nM.

As for `CC[C@@H]1COCC(=O)N1c1cc(CS(C)(=O)=O)cc(-c2ccc3[nH]c(CNC)cc3n2)n1` [Example 34, (R)-5-ethyl-4-(6-(2-((methylamino)methyl)-1H-pyrrolo[3,2-b]pyridin-5-yl)-4-((methylsulfonyl)methyl)pyridin-2-yl)morpholin-3-one], the figures for the IC50 in test [3] and in test [1] were 1260 nM and 7940 nM, respectively.
